Experiment [1] is described as follows: cytotoxicity toward NIH3T3 fibroblasts, dose response, counter-screen, cell-based, ATP luminescence, mouse fibroblasts (AID 2010).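 Note: cells exposed to compound for about 90 hours before reading.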 It is filed as functional.
Experiment [2] concerns the target Induced myeloid leukemia cell differentiation protein Mcl-1 (Homo sapiens, UniProt Q07820). Type of experiment: functional.
The next experiment deals with T1, Bcl-2-like protein 10 (Homo sapiens, UniProt Q9HD36).
T1 sequence (Q9HD36 whole entry): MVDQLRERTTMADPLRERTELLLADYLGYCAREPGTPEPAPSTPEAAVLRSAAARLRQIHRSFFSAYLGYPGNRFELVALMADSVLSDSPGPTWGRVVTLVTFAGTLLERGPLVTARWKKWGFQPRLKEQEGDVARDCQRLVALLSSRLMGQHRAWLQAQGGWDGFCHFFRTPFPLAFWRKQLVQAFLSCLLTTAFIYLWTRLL
The experiment in a line: displacers of TR3 peptide from Bcl-B, primary screen, selectivity assay for Bfl-1 inhibitor project, biochemical, fluorescence polarization, FITC-TR3 peptide (AID 748).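 Note: fluorescence polarization from a fluorescein-labelled TR3 peptide binding purified Bcl-B.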 In general terms: Polarisation of emitted light reports the rotation of a fluorescent probe.

For the next experiment, the target named is T2, Cytochrome P450 1A2 (Homo sapiens, UniProt P05177).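 Note: PubChem cytochrome P450 panel assay, CYP1A2 panel member.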
T2 sequence (P05177 whole entry): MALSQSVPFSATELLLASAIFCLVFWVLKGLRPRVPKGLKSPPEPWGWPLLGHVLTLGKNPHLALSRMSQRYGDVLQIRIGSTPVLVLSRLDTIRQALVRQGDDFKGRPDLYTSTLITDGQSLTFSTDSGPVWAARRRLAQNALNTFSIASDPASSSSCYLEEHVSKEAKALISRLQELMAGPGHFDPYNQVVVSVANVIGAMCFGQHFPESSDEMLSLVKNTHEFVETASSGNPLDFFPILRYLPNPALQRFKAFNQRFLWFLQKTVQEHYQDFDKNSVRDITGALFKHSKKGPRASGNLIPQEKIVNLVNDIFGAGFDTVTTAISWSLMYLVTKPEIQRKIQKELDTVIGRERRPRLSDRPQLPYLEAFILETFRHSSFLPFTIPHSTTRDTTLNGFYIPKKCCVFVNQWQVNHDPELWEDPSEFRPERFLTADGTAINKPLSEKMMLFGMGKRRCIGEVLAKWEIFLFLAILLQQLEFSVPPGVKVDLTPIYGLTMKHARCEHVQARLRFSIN

Experiment [3] is described as follows: inhibitors of intracellular T. cruzi replication, confirmation, NIH3T3 host cells, beta-gal luminescence (AID 2044).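 Note: intracellular parasites grown in NIH/3T3 mouse fibroblasts as host cells; luminescent beta-galactosidase reporter signal from transgenic T. cruzi replicating inside host cells; inhibitors lower the luminescence signal.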 Type of experiment: functional, cell-based.
Another experiment deals with Troponin, cardiac muscle (Homo sapiens, UniProt P19429+P45379+P63316). Nature of the experiment: Fluorescence-based biochemical high throughput dose response assay for activators of the calcium sensitivity of cardiac Regulated Thin Filaments (RTF). [Related pubchem assays (depositor defined):AID493008, AID493018, AID504382, AID504383]. It is filed as protein-complex assay.

The target of another experiment is T3, Bcl-2-related protein A1 (Mus musculus, UniProt Q07440).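 Note: confirmatory dose–response counterscreen on Bfl-1, used to check hits from a UBC13 polyubiquitin inhibitor campaign.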
T3 sequence (Q07440 whole entry): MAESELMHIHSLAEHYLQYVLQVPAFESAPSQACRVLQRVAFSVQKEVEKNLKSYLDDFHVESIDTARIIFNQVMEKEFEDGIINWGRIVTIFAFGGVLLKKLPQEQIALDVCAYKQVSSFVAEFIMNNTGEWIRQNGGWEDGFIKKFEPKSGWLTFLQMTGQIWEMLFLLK
Type of experiment: functional.

The target of experiment [4] is T4, Ubiquitin-conjugating enzyme E2 N (Homo sapiens, UniProt P61088).
T4 sequence (P61088 whole entry): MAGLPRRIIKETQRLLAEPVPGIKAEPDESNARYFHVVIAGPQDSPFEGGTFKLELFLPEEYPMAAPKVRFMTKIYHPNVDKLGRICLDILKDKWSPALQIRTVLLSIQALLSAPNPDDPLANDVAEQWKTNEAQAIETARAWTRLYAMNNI
Type of experiment: functional.

The target of experiment [5] is T4, Ubiquitin-conjugating enzyme E2 N. Type of experiment: functional. This is another data set of the same source.
Experiment [6] has as its target DNA dC->dU-editing enzyme APOBEC-3G (Homo sapiens, UniProt Q9HC16). Nature of the experiment: Dose Response confirmation of small molecule APOBEC3G DNA Deaminase Inhibitors via a fluorescence-based single-stranded DNA deaminase assay. [Related pubchem assays (depositor defined):AID493012, AID493028]. It is filed as functional.
Experiment [7] addresses G-protein coupled receptor 55 (Homo sapiens, UniProt Q9Y2T6). The experiment in a line: GPR55 agonists via beta-arrestin recruitment, primary screen, imaging, U2OS cells, beta-arrestin-GFP redistribution (AID 1961). Type of experiment: functional. On the technique in general: Activated receptors often draw arrestin, which recruitment assays turn into a signal.
Experiment [8] in a line: cells. It is filed as functional, cell-based.
Experiment [9] in a line: cells. It is filed as functional, cell-based. This is another data set of the same source.
The test system of another experiment is INS1. The experiment in a line: beta cell apoptosis inhibitors, cytokine rescue, dose response, luminescence, retest (AID 449756).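 Note: cell death triggered by IL-1 beta plus TNF-alpha plus IFN-gamma mixture; protective hits raise ATP signal compared with cytokine alone wells.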 Type of experiment: functional, cell-based. The settings on record: Rattus norvegicus.
The test system of experiment [10] is HEK293. The experiment in a line: NOD1 signaling inhibitors, primary screen, cell-based, luminescence, uHTS (AID 1578). Type of experiment: functional. The conditions noted are these: Homo sapiens.
The test system of experiment [11] is Streptococcus sp. 'group A'. The experiment in a line: growth inhibition of control SK(-) GAS strain, dose response, counter-screen for streptokinase expression inhibitor project, luminescence, kanamycin, BacTiterGlo, confirmation (AID 1900). Type of experiment: functional, organism-based. (The purpose of a counterscreen is to sort out artefacts and off-target activity.)

Experiment [12] has as its system HEK293. The experiment in a line: NOD2 signaling inhibitors in MDP-stimulated cells, cell-based, uHTS, luminescence (AID 2001). Type of experiment: functional. The settings on record: Homo sapiens.
Experiment [13] is described as follows: NIH-3T3 fibroblast cytotoxicity, dose response, cytotoxicity control, cell-based, fluorescence, Alamar Blue, secondary assay (AID 2327).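 Note: NIH-3T3 mouse fibroblasts cultured with fluconazole at 8 µg/mL.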 Type of experiment: functional.
In experiment [14] the test system is HEK293. The experiment in a line: cells. Type of experiment: functional, cell-based. The conditions noted are these: Homo sapiens.
Experiment [15] concerns HEK293. The experiment in a line: cells. It is filed as functional, cell-based. The conditions noted are these: Homo sapiens. This is another data set of the same source.
Experiment [16] concerns the target Nucleotide-binding oligomerization domain-containing protein 2 (Homo sapiens, UniProt Q9HC29). The experiment in a line: NOD2 signaling inhibitors, cell-based, luminescence, uHTS, HEK293 (AID 1566). It is filed as functional.
Experiment [17] can be described thus: C. albicans growth with fluconazole, confirmation, fluorescence, retest (AID 2467). It is filed as functional, cell-based.
The next experiment has as its system Streptococcus. The experiment in a line: Group A Streptococcus viability loss, dose response, counter-screen for streptokinase expression inhibitor project, luminescence, BacTiterGlo (AID 1915).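 Note: potency for reduction of bacterial viability or growth.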 It is filed as functional, organism-based.
A short description of experiment [18]: HEp-2 cell cytotoxicity, dose response, cytotoxicity control for RSV inhibitor project, HTS (AID 2410). It is filed as functional. The settings on record: human respiratory syncytial virus.

Activity calls are given as the source filed them. Bounds are passed on as bounds.

The EC50 is the concentration that produces a half-maximal response. By IC50 is commonly meant the concentration at which inhibition is half-maximal. The term AC50 denotes the concentration at which the activity in the assay is half-maximal. By CC50 is commonly meant the concentration giving 50% cytotoxicity.

Take `Cc1nc(NC(=O)c2ccco2)sc1-c1csc(Nc2ccc(Cl)cc2Cl)n1`: the EC50 in [1] is > 60 µM (not active); in [3], 0.537 µM (active). The IC50 in [2] is 1.56 µM (active); at Bcl-2-like protein 10 it was > 100 µM (inactive). Also, the AC50 on Cytochrome P450 1A2 is 15.8 µM (inconclusive).

For `C=CCOc1ccc(Br)cc1CNCC`, the EC50 on Troponin, cardiac muscle was > 71.5 µM (inactive).

Regarding `O=C(CSCc1ccc([N+](=O)[O-])cc1)N/N=C/c1ccncc1`, the IC50 on Bcl-2-related protein A1 is > 20 µM (inactive); in [4] it was > 20 µM (inactive); in [5] it was 17.3 µM (active).

As to `Cc1[nH]c(=O)[nH]c(=S)c1C(=O)Nc1ccc(Cl)c(Cl)c1`, the IC50 in experiment [6] is 9.67 µM (active).

In the case of `CCOc1ccc(C2CC(c3c(O)oc4ccccc4c3=O)=NN2c2ccccc2)cc1OC` (centres undefined), the EC50 in [7] was 8.61 µM (active).

In the case of `O=C(c1ccc(S(=O)(=O)N2CCCC2)cc1)N1CCC(CN2C(=O)c3cccc4cccc(c34)C2=O)CC1`, the figures for the IC50 (on Bcl-2-related protein A1; in experiment [4]; in experiment [5]) were > 20 µM (inactive), 8.21 µM (active) and 6.28 µM (active), respectively.

On to `O=C(O)c1ccccc1CSc1nnnn1-c1ccccc1`, for which the EC50 at Troponin, cardiac muscle is > 71.5 µM (inactive).

With `COc1cccc(/C=N/NC(=O)c2c(C)nc3ccc(Cl)cn23)c1O`, the EC50 is 6.42 µM (active) in “cells [8]”; > 350 µM (not active) in the experiment “cells [9]”; > 20 µM (inactive) with HEK293 [10]; 3.25 µM (active) in experiment [11]; > 160 µM (inactive) in experiment [13]; > 20 µM (inactive) in experiment [16]. Also, the EC50 is 1.36 µM (active) in experiment [17] and 7.14 µM (active) in the experiment with Streptococcus. Further, the AC50 in the experiment on INS1 was 0.879 µM (active). Besides, the IC50 in the experiment with HEK293 [12], with HEK293 [14] and with HEK293 [15] was > 20 µM (inactive) each time.

With `CCOC(=O)c1nnc(-c2ccc(C)cc2)nc1Oc1ccc(Cl)cc1Cl`, the EC50 in experiment [7] is 12.4 µM (inactive). Moreover, the CC50 in experiment [18] is 14.1 µM (active).

(Values after ChEMBL document CHEMBL1201862, “PubChem BioAssay data set” (2004).)
